Data on four molecules can be found in patent publication US11369655B2, “Healthful supplements” (priority 2015, dated 2022).

For data set [1] the following is noted: cited from earlier work.
Data set [2] can be described thus: Acute oral toxicity (LD50) in rats. Format: in vivo, rat.
For data set [3] the following is noted: vapor phase, estimated, cited from earlier work.
For data set [4] the following is noted: cited from earlier work. This is another data set of the same source.
Data set [5] concerns the target peripheral cannabinoid receptor type 2 (CB2) (Homo sapiens, UniProt P34972). The note with it: cited from earlier work.
The conditions of data set [6]: crystalline form at −20° C.; cited from earlier work.
Data set [7] deals with cannabinoid receptor type 1 (CB1) (Homo sapiens, UniProt P21554). The note with it: cited from earlier work.
cannabinoid receptor type 1 (CB1), sequence (P21554 whole entry, species assumed): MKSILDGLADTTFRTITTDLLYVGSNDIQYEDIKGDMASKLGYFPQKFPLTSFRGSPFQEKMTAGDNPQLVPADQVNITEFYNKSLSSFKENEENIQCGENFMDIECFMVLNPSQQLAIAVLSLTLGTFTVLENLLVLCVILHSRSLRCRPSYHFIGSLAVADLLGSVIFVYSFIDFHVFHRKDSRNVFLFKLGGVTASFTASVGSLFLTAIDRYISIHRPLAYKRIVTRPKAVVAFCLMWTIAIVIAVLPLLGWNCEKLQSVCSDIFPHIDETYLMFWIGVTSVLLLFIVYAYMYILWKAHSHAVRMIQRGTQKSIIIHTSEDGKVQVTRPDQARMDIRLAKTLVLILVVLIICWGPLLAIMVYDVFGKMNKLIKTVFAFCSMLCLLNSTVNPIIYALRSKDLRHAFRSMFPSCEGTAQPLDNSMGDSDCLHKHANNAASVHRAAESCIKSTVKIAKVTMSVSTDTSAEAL

≈ marks a conversion by molar mass, not a printed value.

peripheral cannabinoid receptor type 2 (CB2), sequence (P34972 whole entry, species assumed): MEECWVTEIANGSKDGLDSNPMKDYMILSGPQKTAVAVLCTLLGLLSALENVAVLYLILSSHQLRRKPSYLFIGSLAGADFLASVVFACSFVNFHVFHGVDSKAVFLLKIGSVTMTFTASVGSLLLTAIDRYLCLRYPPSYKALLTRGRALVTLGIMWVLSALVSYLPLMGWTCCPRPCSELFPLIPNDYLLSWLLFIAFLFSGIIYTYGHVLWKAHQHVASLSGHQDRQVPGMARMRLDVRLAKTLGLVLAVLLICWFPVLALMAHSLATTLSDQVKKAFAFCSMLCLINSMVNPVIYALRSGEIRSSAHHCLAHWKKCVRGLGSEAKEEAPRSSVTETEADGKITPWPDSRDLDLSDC

Regarding `CCO` [ethyl (grain) alcohol], in data set [1] (rat), the “acute oral toxicity (LD50) in rats” value was “about 7060 mg/kg”.
Consider `OCC(O)CO` [Vegetable glycerin, glycerol], for which, in data set [1] (MSDS), the “LD50 oral rat dosage” value is on record as 12,600 milligrams per kilogram of body weight. Further, the “LD50 oral rat dosage converted per pound” value in data set [2] (conversion of the rat oral LD50) is “approximately 5.7 grams per pound of body weight”. Moreover, in data set [2] (for a 180 pound male), the “LD50 oral rat dosage converted for a 180 pound male” value came out at 36 ounces.
`C=CC(=C)CCC=C(C)C` [myrcene, beta-myrcene]: in data set [3] (nitrate radicals), the “half-life in air, reaction with nitrate radicals” value is 4 min. Further, the “half-life in air, reaction with ozone” value in data set [3] (ozone) was 34 min. Also, the “half-life in air, reaction with hydroxyl radicals” value in data set [3] (photochemically-produced hydroxyl radicals) was 1.8 h.
Take `CCCCCC(C)(C)c1ccc([C@H]2CCC[C@@H](O)C2)c(O)c1` (relative stereo) [cp 47,497-C6-homolog, cis-5-(1,1 dimethylhexyl)-2-(3-hydroxycyclohexyl)-phenol]: in data set [4] (DMF), the “solubility in DMF” value is reported as “approximately 10 mg/ml”. Further, in data set [4] (DMSO), the “solubility in DMSO” value was about 15 mg/mL (≈ 49.3 mM). In data set [4] (aqueous solutions), the “solubility in aqueous solutions” value is given as “sparingly soluble”. In addition, the solubility in ethanol entry in data set [4] (ethanol) is given as “approximately 10 mg/ml”. Besides, the solubility in methanol entry in data set [4] (methanol) is on record as “approximately 12.5 mg/ml”. Moreover, the “affinity for CB2” value in data set [5] is listed as “has affinity”. In addition, in data set [6], the “long term storage stability” value is “stable for at least two years”. In addition, the “affinity for CB1” value in data set [7] is on record as “has affinity”.
